What follows are molecules tested on oxidative phosphorylation complex I (assay: Slot blot method, complex I normalized to GAPDH). Conditions: not given.
Type: cell-based, bovine
Procedure: Following treatment, bovine aortic endothelial cells grown in 12 well plates are scrapped in 50 μl of lysis buffer (1% Triton X-100, 20 mm Tris, 140 mm NaCl, 2 mm EDTA, and 0.1% SDS) with protease and phosphatase inhibitor cocktails (P2714 and P2850, Sigma-Aldrich) supplemented with 0.15 mm PMSF, 5 mm Na3VO4 and 3 mm NaF. Homogenates are passed through an insulin syringe five times, sonicated for 30 min at 4° C. and centrifuged (12,000 g) for 10 min. The total protein content is measured in the supernatant using the Bradford method. A total of 10-20 μg of protein are loaded into a pre-assembled slot blot apparatus to be transferred under vacuum onto polyvinyl membranes, incubated for 1 h in blocking solution (5% non-fat dry milk in TBS plus 0.1% Tween 20 (TBS-T)), followed by a overnight incubation at 4° C. with primary antibodies (oxidative phosphorylation complex I or GAPDH). Primary antibodies are diluted in TBS-T plus 5% non-fat dry milk. Membranes are washed (3× for 5 min) in TBS-T and incubated 1 h at room temperature in the presence of HRP-conjugated secondary antibodies diluted in blocking solution. Membranes are again washed 3 times in TBS-T, and the immunoblots developed using an ECL Plus detection kit (Amersham-GE). Band intensities are digitally quantified using ImageJ software (http://www.nih.gov). Complex I values are normalized for loading differences using GAPDH after stripping and reprobing of the membrane. All Western blot images to be obtained will be within the linear range of X-ray film to ensure computer-assisted densitometry accuracy.
With `CC(=O)[C@H]1CC[C@H]2[C@@H]3CC=C4C[C@@H](O)CC[C@]4(C)[C@H]3[C@@H](O)C[C@]12C` [Compound 1002, 1-((3S,8S,9S,10R,11S,13S,14S,17S)-3,11-dihydroxy-10,13-dimethyl-2,3,4,7,8,9,10,11,12,13,14,15,16,17-tetradecahydro-1H-cyclopenta[a]phenanthren-17-yl)ethanone] the “Slot Blot Assay” value was “+ (+ indicates >150% HCAEC)”.
For `COC(=O)[C@H]1CC[C@H]2[C@@H]3CC=C4C[C@@H](O)CC[C@]4(C)[C@H]3[C@@H](O)C[C@]12C` [Compound 1004, (3S,8S,9S,10R,11S,13S,14S,17S)-methyl 3,11-dihydroxy-10,13-dimethyl-2,3,4,7,8,9,10,11,12,13,14,15,16,17-tetradecahydro-1H-cyclopenta[a]phenanthrene-17-carboxylate], the “Slot Blot Assay” value was “+ (+ indicates >150% HCAEC)”.
In the case of `CC[C@H]1CC[C@H]2[C@@H]3CC=C4C[C@@H](O)CC[C@]4(C)[C@H]3[C@@H](O)C[C@]12C` [Compound 1009, (3S,8S,9S,10R,11S,13R,14S,17S)-17-ethyl-10,13-dimethyl-2,3,4,7,8,9,10,11,12,13,14,15,16,17-tetradecahydro-1H-cyclopenta[a]phenanthrene-3,11-diol], the “Slot Blot Assay” value is reported as “+ (+ indicates >150% HCAEC)”.
With `Cc1noc([C@H]2CC[C@H]3[C@@H]4CCC5=CC(=O)CC[C@]5(C)[C@H]4[C@@H](O)C[C@]23C)n1` [Compound 1012, (8S,9S,10R,11S,13S,14S,17S)-11-hydroxy-10,13-dimethyl-17-(3-methyl-1,2,4-oxadiazol-5-yl)-6,7,8,9,10,11,12,13,14,15,16,17-dodecahydro-1H-cyclopenta[a]phenanthren-3(2H)-one] the “Slot Blot Assay” value was “+ (+ indicates >150% HCAEC)”.

The molecules below were run on AMPK (assay: AMPK activation, cell based ELISA in Hep G2 cells). Conditions: 1 h incubation, DMSO control as 100%.
Procedure: AMPK Activation Protocol:
AMPK activation potential of the compounds was evaluated using cell based ELISA.
Hepatoma (Hep G2) liver cells were maintained in a T 75 culture flask-containing 25 mM DMEM+10% fetal calf serum. The cells were maintained in a T 75 culture flask-containing medium (DMEM+10% fetal calf serum). On reaching a confluence of 70 to 80%, the cells were seeded in a 96 well plate at a density of 40,000 cells per well in 25 mM DMEM+10% FCS medium. The plates were then incubated at 37° C. with 5% CO2 for 24 hours. Various concentrations of drugs were prepared in DMSO and diluted to required concentration with the medium and incubated at 37° C. with 5% CO2 for 30 min and 1 h for Epicatechin analogs and 11-BHP analogs respectively. Metformin was used as positive control. Cells were fixed with 4% formaldehyde for 30 minutes at room temperature and washed three times with PBS containing 0.1% Triton X-100. Endogenous peroxidase was quenched with 1% H2O2 in PBS-T (0.1% Tween 20) for 30 minutes and washed three times in PBS-T. Cells were blocked with 1% BSA in PBS-T for 1 hour.
With `CC(=O)C1CCC2C3CC=C4CC5(CC[C@]4(C)C3[C@@H](O)C[C@]12C)OCCO5` (stereo partly drawn) [Compound 1029, 1-((10R,11S,13S)-11-hydroxy-10,13-dimethyl-1,2,4,7,8,9,10,11,12,13,14,15,16,17-tetradecahydrospiro[cyclopenta[a]phenan-threne-3,2′-[1,3]dioxolan]-17-yl)ethan-1-one] the “% activation pAMPK at 1 nM” value was 105%.
With `CN(C)C(=O)C1CCC2C3CCC4=CC(=O)CC[C@]4(C)C3[C@@H](O)C[C@]12C` (stereo partly drawn) [Compound 1030, (10R,11S,13S)-11-hydroxy-N,N,10,13-tetramethyl-3-oxo-2,3,6,7,8,9,10,11,12,13,14,15,16,17-tetradecahydro-1H-cyclopenta[a]phenanthrene-17-carboxamide] the “% activation pAMPK at 1 nM” value was 105%.
For `C/C(=N/O)[C@H]1CCC2C3CCC4=C/C(=N\O)CC[C@]4(C)C3[C@@H](O)C[C@@]21C` (stereo partly drawn) [Compound 1031, (10R,11S,13S,17S,Z)-11-hydroxy-17-((Z)-1-(hydroxyimino)ethyl)-10,13-dimethyl-1,2,6,7,8,9,10,11,12,13,14,15,16,17-tetradecahydro-3H-cyclopenta[a]phenanthren-3-one oxime], the “% activation pAMPK at 1 nM” value was 109%.
For `CN(C)C(=O)C1CCC2C3CCC4CC(=O)CC[C@]4(C)C3[C@@H](O)C[C@]12C` (stereo partly drawn) [Compound 1033, (10S,11S,13S)-11-hydroxy-N,N,10,13-tetramethyl-3-oxohexadecahydro-1H-cyclopenta[a]phenanthrene-17-carboxamide], the “% activation pAMPK at 1 nM” value was 107%.
In the case of `C[C@]12CCC(=O)CC1CCC1C2[C@@H](O)C[C@]2(C)C(=O)CCC12` (stereo partly drawn) [Compound 1034, (10S,11S,13S)-11-hydroxy-10,13-dimethyltetradecahydro-3H-cyclopenta[a]phenanthrene-3,17(2H)-dione], the “% activation pAMPK at 1 nM” value is reported as 104%.
`CC(=O)[C@H]1CCC2C3CCC4=CC(=O)CC[C@]4(C)C3[C@@](C)(O)C[C@@]21C` (stereo partly drawn) [Compound 1035, (10R,11S,13S,17S)-17-acetyl-11-hydroxy-10,11,13-trimethyl-1,2,6,7,8,9,10,11,12,13,14,15,16,17-tetradecahydro-3H-cyclopenta[a]phenanthren-3-one] was tested, and the “% activation pAMPK at 1 nM” value was 102%.
For `CC(O)C1CCC2C3CC=C4C[C@@H](O)CC[C@]4(C)C3[C@@H](O)C[C@]12C` (stereo partly drawn) [Compound 1036, (3S,10R,11S,13S)-17-(1-hydroxyethyl)-10,13-dimethyl-2,3,4,7,8,9,10,11,12,13,14,15,16,17-tetradecahydro-1H-cyclopenta[a]phenanthrene-3,11-diol], the “% activation pAMPK at 1 nM” value was 102%.
`CC(O)[C@H]1CC[C@H]2[C@@H]3CCC4=C[C@@H](O)CC[C@]4(C)[C@H]3[C@@H](O)C[C@]12C` (stereo partly drawn) [Compound 1037, (3S,8S,9S,10R,11S,13S,14S,17S)-17-(1-hydroxyethyl)-10,13-dimethyl-2,3,6,7,8,9,10,11,12,13,14,15,16,17-tetradecahydro-1H-cyclopenta[a]phenanthrene-3,11-diol] was tested, and the “% activation pAMPK at 1 nM” value was 95%.
With `CO[C@H]1CC[C@@]2(C)C(=CCC3C2[C@@H](O)C[C@@]2(C)C3CC[C@@H]2C(C)=O)C1` (stereo partly drawn) [Compound 1038, 1-((3S,10R,11S,13S,17S)-11-hydroxy-3-methoxy-10,13-dimethyl-2,3,4,7,8,9,10,11,12,13,14,15,16,17-tetradecahydro-1H-cyclopenta[a]phenanthren-17-yl)ethan-1-one] the “% activation pAMPK at 1 nM” value was 103%.
In the case of `CC(O)C1CCC2C3CCC4CC5(CC[C@]4(C)C3[C@@H](O)C[C@]12C)OCCO5` (stereo partly drawn) [Compound 1039, (10S,11S,13S)-17-(1-hydroxyethyl)-10,13-dimethylhexadecahydrospiro[cyclopenta[a]phenanthrene-3,2′-[1,3]dioxolan]-11-ol], the “% activation pAMPK at 1 nM” value is reported as 100%.
For `CC(O)[C@H]1CCC2C3CCC4C[C@@H](O)CC[C@]4(C)C3[C@@H](O)C[C@@]21C` (stereo partly drawn) [Compound 1040, (3S,10S,11S,13S,17S)-17-(1-hydroxyethyl)-10,13-dimethylhexadecahydro-1H-cyclopenta[a]phenanthrene-3,11-diol], the “% activation pAMPK at 1 nM” value was 95%.
`CC[C@H]1CCC2C3CC=C4C[C@@H](O)CC[C@]4(C)C3[C@@H](O)C[C@@]21C` (stereo partly drawn) [Compound 1041, (3S,10R,11S,13R,17S)-17-ethyl-10,13-dimethyl-2,3,4,7,8,9,10,11,12,13,14,15,16,17-tetradecahydro-1H-cyclopenta[a]phenanthrene-3,11-diol] was tested, and the “% activation pAMPK at 1 nM” value was 95%.
For `CC(=O)[C@H]1CCC2C3CCC4C[C@@H](O)CC[C@]4(C)C3[C@@H](O)C[C@@]21C` (stereo partly drawn) [Compound 1042, 1-((3S,10S,11S,13S,17S)-3,11-dihydroxy-10,13-dimethylhexadecahydro-1H-cyclopenta[a]phenanthren-17-yl)ethan-1-one], the “% activation pAMPK at 1 nM” value was 96%.
`[2H][C@]1(O)CC[C@@]2(C)C(=CCC3C2[C@@H](O)C[C@@]2(C)C3CC[C@@H]2C(C)=O)C1` (stereo partly drawn) [Compound 1045, 1-((3S,10R,11S,13S,17S)-3,11-dihydroxy-10,13-dimethyl-2,3,4,7,8,9,10,11,12,13,14,15,16,17-tetradecahydro-1H-cyclopenta[a]phenanthren-17-yl-3-d)ethan-1-one] was tested, and the “% activation pAMPK at 1 nM” value was 116%.
With `CC(=O)[C@H]1CCC2C3CC=C4C[C@@H](O)CC[C@]4(C)C3[C@@](C)(O)C[C@@]21C` (stereo partly drawn) [Compound 1047, 1-((3S,10R,11S,13S,17S)-3,11-dihydroxy-10,11,13-trimethyl-2,3,4,7,8,9,10,11,12,13,14,15,16,17-tetradecahydro-1H-cyclopenta[a]phenanthren-17-yl)ethan-1-one] the “% activation pAMPK at 1 nM” value was 119%.
`C[C@]12C[C@H](O)C3C(CCC4=CC(=O)CC[C@@]43C)C1CCC2C(=O)CO` (stereo partly drawn) [Compound 1048, (10R,11S,13S)-11-hydroxy-17-(2-hydroxyacetyl)-10,13-dimethyl-1,2,6,7,8,9,10,11,12,13,14,15,16,17-tetradecahydro-3H-cyclopenta[a]phenanthren-3-one] was tested, and the “% activation pAMPK at 1 nM” value was 108%.

— US20150376225A1, “NOVEL COMPOUNDS OF 11BETA-HYDROXY-STEROIDS FOR USE IN MITOCHONDRIA BIOGENESIS AND DISEASES ASSOCIATED WITH MITOCHONDRIAL DYSFUNCTION OR DEPLETION” (SPHAERA PHARMA PVTD. LTD., priority 2013, published 2015)
